Where a name gives a salt, the structure may show the parent alone.

As usually defined, the melting point is the temperature of the solid-liquid transition. Take `COC(=O)c1ccc(-c2nn(Cc3cccc(Cl)c3)c(=S)[nH]2)cc1` [Example 2, Methyl 4-[1-[(3-Chlorophenyl)methyl]-4,5-dihydro-5-thioxo-1H-1,2,4-triazol-3-yl]-benzoate]: the melting point was in the range of 263.5 to 264.5 °C.

For `O=C(O)c1ccc(-c2nn(Cc3cccc(Cl)c3)c(=S)[nH]2)cc1` [Example 1, 4-[1-[(3-Chlorophenyl)methyl]-4,5-dihydro-5-thioxo-1H-1,2,4-triazol-3-yl]-benzoic acid], the melting point was 302 °C.

Compound `CN(C)CC(C)(C)CNC(=O)c1cccc(-c2nn(Cc3cccc(Cl)c3)c(=S)[nH]2)c1` [Example 15, 3-{1-[(3-Chlorophenyl)methyl]-1,2-dihydro-5thioxo-1H[1,2,4]triazol-3-yl}-N-(2-methyl-2-dimethylaminomethylpropyl)benzamide] gave a melting point of 173 to 175 °C.

`O=C(NCCO)c1ccc(-c2nn(Cc3cccc(Cl)c3)c(=S)[nH]2)cc1` [Example 7, 4-[1-[(3-Chlorophenyl)methyl]-4,5-dihydro-5-thioxo-1H-1,2,4-triazol-3-yl]-N-(2-hydroxyethyl)-benzamide] returned a melting point of 188 to 190 °C.

Compound `O=C(O)c1ccccc1-c1nn(Cc2cccc(Cl)c2)c(=S)[nH]1` [Example 11, 2-[1-[(3-Chlorophenyl)methyl]-4,5-dihydro-5-thioxo-1H-1,2,4-triazol-3-yl]-benzoic acid] registered a melting point of 234 to 238 °C.

Compound `CN(C)C(=O)c1cccc(-c2nn(Cc3cccc(Cl)c3)c(=S)[nH]2)c1` [Example 16, 3-{1-[(3-Chlorophenyl)methyl]-1,2-dihydro-5thioxo-1H[1,2,4]triazol-3-yl}-N,N-dimethylbenzamide] returned a melting point of 184 to 187 °C.

The compound `COC(=O)C(CO)NC(=O)c1cccc(-c2nn(Cc3cccc(Cl)c3)c(=S)[nH]2)c1` (stereo not shown) [Example 14] came in with a melting point of 188 to 196 °C.

`CC(C)CCNC(=O)c1ccc(-c2nn(Cc3cccc(Cl)c3)c(=S)[nH]2)cc1` [Example 5, 4-[1-[(3-Chlorophenyl)methyl]-4,5-dihydro-5-thioxo-1H-1,2,4-triazol-3-yl]-N-(3-methylbutyl)-benzamide] registered a melting point of 218 to 220 °C.

Take `C[C@@H](NC(=O)c1ccc(-c2nn(Cc3cccc(Cl)c3)c(=S)[nH]2)cc1)[C@@H](O)c1ccccc1` [Example 6, [1R, 2S]-4-[1-[(3-Chlorophenyl)methyl]-4,5-dihydro-5-thioxo-1H-1,2,4-triazol-3-yl]-N-(2-hydroxy-1-methyl-2-phenylethyl)-benzamide]: the melting point fell in the range of 220 to 222 °C.

Consider `N#CCNC(=O)c1cccc(Cn2nc(-c3ccccc3Cl)[nH]c2=S)c1` [Example 17], for which the melting point was 178 to 182 °C.

The compound `O=C(c1ccc(-c2nn(Cc3cccc(Cl)c3)c(=S)[nH]2)cc1)N1CCN(c2cccc(Cl)c2)CC1` (as salt: hydrochloride) [Example 8, 2-[(3-Chlorophenyl)methyl]-5-[4-[[4-(3-chlorophenyl)-1-piperazinyl]carbonyl]phenyl]-2,4-dihydro-3H-1,2,4-triazole-3-thione] showed a melting point of 260 to 262 °C.

For the compound `O=C(O)c1cccc(-c2nn(Cc3cccc(Cl)c3)c(=S)[nH]2)c1` [Example 12, 3-[1-[(3-Chlorophenyl)methyl]-4,5-dihydro-5-thioxo-1H-1,2,4-triazol-3-yl]-benzoic acid], the melting point lay in the range of 314 to 316 °C.

In turn, `O=C(NCCF)c1cccc(Cn2nc(-c3ccccc3Cl)[nH]c2=S)c1` [Example 18] returned a melting point of 165 to 168 °C.

As for `CN(C)C(=O)c1ccc(-c2nn(Cc3cccc(Cl)c3)c(=S)[nH]2)cc1` [Example 4, 4-[1-[(3-Chlorophenyl)methyl]-4,5-dihydro-5-thioxo-1H-1,2,4-triazol-3-yl]-N,N-dimethyl-benzamide], the melting point lay within 302 to 304 °C.

In the case of `NC(=O)c1ccc(-c2nn(Cc3cccc(Cl)c3)c(=S)[nH]2)cc1` [Example 3, 4-[1-[(3-Chlorophenyl)methyl]-4,5dihydro-5-thioxo-1H-1,2,4-triazol-3-yl]-benzamide], the melting point is 310 to 312 °C.

The compound `NS(=O)(=O)c1ccc(-c2nn(Cc3cccc(Cl)c3)c(=S)[nH]2)cc1` [Example 13, 4-[1-[(3-chlorophenyl)methyl]-4,5dihydro-5-thioxo-1H-1,2,4-triazol-3-yl]-benzenesulfonamide] had a melting point of 281 to 283 °C.

These data come from patent US20040214864A1, “Novel compounds” (priority 2000, published 2004).
